Laboratory results from patent US9040530B2, “1,2,4-triazine-6-carboxamide kinase inhibitors” (Portola Pharmaceuticals, Inc., priority 2012, dated 2015).

Target: T1, full length active recombinant SYK enzyme (Homo sapiens, UniProt P43405)
T1 construct: full length active recombinant SYK enzyme (Millipore, Calif.); purchased Millipore
Assay: Inhibition of Syk tyrosine phosphorylation activity (LANCE TR-FRET kinase assay)
Format: biochemical
Conditions: 1 nM active SYK enzyme, 550 nM SYK-substrate, 100 μM ATP, 1 hour at room temperature
Protocol: The in vitro and in vivo human Syk activities of the inventive compounds can be determined by various procedures known in the art, such as a test for their ability to inhibit the activity of human plasma Syk.
Inhibition of Syk Tyrosine Phosphorylation Activity
SYK tyrosine phosphorylation activity is measured using the LANCE™ Technology developed by Perkin Elmer Life and Analytical Sciences (Boston, Mass.). LANCE™ refers to homogeneous time resolved fluorometry applications using techniques such as time-resolved fluorescence resonance energy transfer assay (TR-FRET) (see generally for procedures in Perkin Elmer Application Note—How to Optimize a Tyrosine Kinase Assay Using Time Resolved Fluorescence-Based LANCE Detection, wwww.perkinelmer.com/lifesciences). The assay principle involves detection of a phosphorylated substrate using energy transfer from a phosphospecific europium-labeled antibody to streptavidin-allophycocyanin as an acceptor.
Molecules are reconstituted in 30% DMSO and serially diluted 1:3 with the final dilution containing DMSO in the absence of the candidate molecule. The final DMSO concentration in the assay is 3%. Kinase assays are performed as a two part reaction. […] The second reaction involves termination of the kinase reaction and the simultaneous addition of the detection reagents-europium-labeled anti-phosphotyrosine reagent (Eu-W1024-PY100, Perkin Elmer, Boston, Mass.) and Streptavidin-Allophycocyanin detection reagent (SA-APC, Prozyme, CA). The kinase reaction is performed in a black U-bottom 96-well microtitre plate. […] The reaction is allowed to proceed for 1 hour at room temperature. The quench buffer contains 100 mM Tris pH 7.5, 300 mM […], 20 mM EDTA, 0.02% Brij35, and 0.5% BSA. The detection reagents are added to the reaction mixture at the following dilutions-1:500 for Eu-W1024-PY100 and 1:250 for SA-APC. The kinase reaction is terminated by the addition of 50 μL quench buffer containing the detection reagents. The detection is allowed to proceed for 1 hr at room temperature. Detection of the phosphorlated substrate in the absence and presence of inhibitors is measured in the TR-FRET instrument, Analyst HT (Molecular Probes, Sunnyvale, Calif.) and the condition for measurements are set up using CriterionHost Release 2.0 (Molecular Probes, Sunnyvale, Calif.). […] IC50s were derived by non-linear regression analysis.

Structure (SMILES)	IC50
N#Cc1ccccc1Nc1nc(N[C@@H]2CCCC[C@@H]2N)nnc1C(N)=O [Example 115, 3-(((1R,2S)-2-aminocyclohexyl)amino)-5-((2-cyanophenyl)amino)-1,2,4-triazine-6-carboxamide]	100 to 1000 nM
NC(=O)c1nnc(N[C@@H]2CCCC[C@@H]2N)nc1Nc1cccc2ncsc12 [Example 40, 3-(((1R,2S)-2-aminocyclohexyl)amino)-5-(benzo[d]thiazol-7-ylamino)-1,2,4-triazine-6-carboxamide]	10 to 100 nM
CC[C@@H](Nc1nnc(C(N)=O)c(Nc2ccc(C)c(C)c2)n1)C(N)=O [Example 203, (R)-3-((1-amino-1-oxobutan-2-yl)amino)-5-((3,4-dimethylphenyl)amino)-1,2,4-triazine-6-carboxamide]	10 to 100 nM
NC(=O)c1nnc(N[C@@H]2CCCC[C@@H]2N)nc1Nc1cncs1 [Example 133, 3-(((1R,2S)-2-aminocyclohexyl)amino)-5-(thiazol-5-ylamino)-1,2,4-triazine-6-carboxamide]	10 to 100 nM
NC(=O)c1nnc(N[C@@H]2CCCC(F)(F)[C@@H]2N)nc1Nc1ccc2c(c1)CS(=O)(=O)C2 [Example 217, 3-(((1R,2R)-2-amino-3,3-difluorocyclohexyl)amino)-5-((2,2-dioxido-1,3-dihydrobenzo[c]thiophen-5-yl)amino)-1,2,4-triazine-6-carboxamide]	100 to 1000 nM
Cc1ccc(Nc2nc(N[C@H](CC3CC3)C(N)=O)nnc2C(N)=O)cc1 [Example 226, (R)-3-((1-amino-3-cyclopropyl-1-oxopropan-2-yl)amino)-5-(p-tolylamino)-1,2,4-triazine-6-carboxamide]	10 to 100 nM
C[N+]1([O-])CCC(c2ccc(Nc3nc(N[C@@H]4CCCC[C@@H]4N)nnc3C(N)=O)cc2)CC1 (stereo partly drawn) [Example 29, 4-(4-((3-(((1R,2S)-2-aminocyclohexyl)amino)-6-carbamoyl-1,2,4-triazin-5-yl)amino)phenyl)-1-methylpiperidine 1-oxide]	10 to 100 nM
CC[C@@H](Nc1nnc(C(N)=O)c(Nc2ccc(Cl)c(Cl)c2)n1)C(N)=O [Example 235, (R)-3-((1-amino-1-oxobutan-2-yl)amino)-5-((3,4-dichlorophenyl)amino)-1,2,4-triazine-6-carboxamide]	10 to 100 nM
NC(=O)c1nnc(N[C@@H]2CCOC[C@@H]2N)nc1Nc1ccc(Cl)cc1 [Example 243, 3-(((3R,4R)-3-aminotetrahydro-2H-pyran-4-yl)amino)-5-((4-chlorophenyl)amino)-1,2,4-triazine-6-carboxamide]	10 to 100 nM
NC(=O)c1nnc(N[C@@H]2CCOC[C@@H]2N)nc1Nc1cccc(C(F)(F)F)c1 [Example 251, 3-(((3R,4R)-3-aminotetrahydro-2H-pyran-4-yl)amino)-5-((3-(trifluoromethyl)phenyl)amino)-1,2,4-triazine-6-carboxamide]	10 to 100 nM
NC(=O)c1nnc(N)nc1Nc1cccc(-c2ncccn2)c1 [Example 92, 3-amino-5-((3-(pyrimidin-2-yl)phenyl)amino)-1,2,4-triazine-6-carboxamide]	> 1000 nM
CC[C@@H](Nc1nnc(C(N)=O)c(Nc2ccc(C)cc2)n1)C(N)=O [Example 10, (R)-3-((1-amino-1-oxobutan-2-yl)amino)-5-(p-tolylamino)-1,2,4-triazine-6-carboxamide]	10 to 100 nM
Cc1cc(F)cc(Nc2nc(N[C@@H]3CCCC(F)(F)[C@@H]3N)nnc2C(N)=O)c1 [Example 202, 3-(((1R,2R)-2-amino-3,3-difluorocyclohexyl)amino)-5-((3-fluoro-5-methylphenyl)amino)-1,2,4-triazine-6-carboxamide]	10 to 100 nM
CC[C@@H](Nc1nnc(C(N)=O)c(Nc2ccc(C)c(OC)c2)n1)C(N)=O [Example 231, (R)-3-((1-amino-1-oxobutan-2-yl)amino)-5-((3-methoxy-4-methylphenyl)amino)-1,2,4-triazine-6-carboxamide]	10 to 100 nM
CC[C@@H](Nc1nnc(C(N)=O)c(Nc2cccc(Cl)c2)n1)C(N)=O [Example 194, (R)-3-((1-amino-1-oxobutan-2-yl)amino)-5-((3-chlorophenyl)amino)-1,2,4-triazine-6-carboxamide]	10 to 100 nM
NC(=O)c1nnc(N[C@@H]2CCCC(F)(F)[C@@H]2N)nc1Nc1ccc2ncsc2c1 [Example 43, 3-(((1R,2R)-2-amino-3,3-difluorocyclohexyl)amino)-5-(benzo[d]thiazol-6-ylamino)-1,2,4-triazine-6-carboxamide]	10 to 100 nM
Cn1ncc2c(Nc3nc(N[C@@H]4CCCC(F)(F)[C@@H]4N)nnc3C(N)=O)cccc21 [Example 117, 3-(((1R,2R)-2-amino-3,3-difluorocyclohexyl)amino)-5-((1-methyl-1H-indazol-4-yl)amino)-1,2,4-triazine-6-carboxamide]	10 to 100 nM
CC[C@@H](Nc1nnc(C(N)=O)c(Nc2cccc3c2ccn3C)n1)C(N)=O [Example 80, (R)-3-((1-amino-1-oxobutan-2-yl)amino)-5-((1-methyl-1H-indol-4-yl)amino)-1,2,4-triazine-6-carboxamide]	1 to 10 nM
NC(=O)c1nnc(N[C@@H]2CCOC[C@@H]2N)nc1Nc1cccc(-n2nccn2)c1 [Example 85, 5-((3-(2H-1,2,3-triazol-2-yl)phenyl)amino)-3-(((3R,4R)-3-aminotetrahydro-2H-pyran-4-yl)amino)-1,2,4-triazine-6-carboxamide]	1 to 10 nM

The next lines start with the values.

IC50	Structure (SMILES)
< 1 nM	Cn1ncc2ccc(Nc3nc(N[C@H](CC(F)F)C(N)=O)nnc3C(N)=O)cc21 [Example 184, (R)-3-((1-amino-4,4-difluoro-1-oxobutan-2-yl)amino)-5-((1-methyl-1H-indazol-6-yl)amino)-1,2,4-triazine-6-carboxamide]
1 to 10 nM	CC[C@@H](Nc1nnc(C(N)=O)c(Nc2ccc3cn(C)nc3c2)n1)C(N)=O [Example 179, (R)-3-((1-amino-1-oxobutan-2-yl)amino)-5-((2-methyl-2H-indazol-6-yl)amino)-1,2,4-triazine-6-carboxamide]
1 to 10 nM	NC(=O)c1nnc(N[C@@H]2CCCC[C@@H]2N)nc1Nc1cc(F)cc(F)c1 [Example 20, 3-(((1R,2S)-2-aminocyclohexyl)amino)-5-((3,5-difluorophenyl)amino)-1,2,4-triazine-6-carboxamide]
1 to 10 nM	NC(=O)c1nnc(N[C@@H]2CCCC[C@@H]2N)nc1Nc1ccccc1 [Example 69, 3-(((1R,2S)-2-aminocyclohexyl)amino)-5-(phenylamino)-1,2,4-triazine-6-carboxamide]
1 to 10 nM	Cc1cc(F)cc(Nc2nc(N[C@@H]3CCCC[C@@H]3N)nnc2C(N)=O)c1 [Example 22, 3-(((1R,2S)-2-aminocyclohexyl)amino)-5-((3-fluoro-5-methylphenyl)amino)-1,2,4-triazine-6-carboxamide]
< 1 nM	Cn1ncc2ccc(Nc3nc(N[C@@H]4CCCC[C@@H]4N)nnc3C(N)=O)cc21 [Example 182, 3-(((1R,2S)-2-aminocyclohexyl)amino)-5-((1-methyl-1H-indazol-6-yl)amino)-1,2,4-triazine-6-carboxamide]
1 to 10 nM	NC(=O)c1nnc(N[C@H](CC(F)F)C(N)=O)nc1Nc1cc(Cl)c2ncccc2c1 [Example 185, (R)-3-((1-amino-4,4-difluoro-1-oxobutan-2-yl)amino)-5-((8-chloroquinolin-6-yl)amino)-1,2,4-triazine-6-carboxamide]
1 to 10 nM	Cc1ccc(Nc2nc(N[C@H](CC(C)C)C(N)=O)nnc2C(N)=O)cc1C [Example 209, (R)-3-((1-amino-4-methyl-1-oxopentan-2-yl)amino)-5-((3,4-dimethylphenyl)amino)-1,2,4-triazine-6-carboxamide]
1 to 10 nM	Cn1cc2ccc(Nc3nc(N[C@@H]4CCCC[C@@H]4N)nnc3C(N)=O)cc2n1 [Example 181, 3-(((1R,2S)-2-aminocyclohexyl)amino)-5-((2-methyl-2H-indazol-6-yl)amino)-1,2,4-triazine-6-carboxamide]
1 to 10 nM	Cn1ccc2c(Nc3nc(N[C@@H]4CCCC[C@@H]4N)nnc3C(N)=O)cncc21 [Example 148, 3-(((1R,2S)-2-aminocyclohexyl)amino)-5-((1-methyl-1H-pyrrolo[2,3-c]pyridin-4-yl)amino)-1,2,4-triazine-6-carboxamide]
1 to 10 nM	NC(=O)c1nnc(N[C@@H]2CCCC[C@@H]2N)nc1Nc1cccc(-n2cccn2)c1 [Example 6, 5-(3-(1H-pyrazol-1-yl)phenylamino)-3-((1R,2S)-2-aminocyclohexylamino)-1,2,4-triazine-6-carboxamide]
